The source of these data is ChEMBL document CHEMBL5705888, “Substrate specificity and inhibitors of LRRK2, a protein kinase mutated in Parkinson's disease” (Biochem J, 2009).

Experiment [1] deals with Mitogen-activated protein kinase kinase kinase 11 (Homo sapiens) (UniProt Q16584). Nature of the experiment: Inhibition of MLK3 (unknown origin) at 1 uM incubated for 30 mins in presence of [gamma-33P]ATP by multidrop micro reagent based assay relative to control; values are per cent of control.
Experiment [2] concerns the target Ribosomal protein S6 kinase alpha-1 (Homo sapiens) (UniProt Q15418). In words: Inhibition of RSK1 (unknown origin) at 1 uM incubated for 30 mins in presence of [gamma-33P]ATP by multidrop micro reagent based assay relative to control; values are per cent of control.
For experiment [3], the target named is Serine/threonine-protein kinase PAK 6 (Homo sapiens) (UniProt Q9NQU5). In words: Inhibition of PAK6 (unknown origin) at 1 uM incubated for 30 mins in presence of [gamma-33P]ATP by multidrop micro reagent based assay relative to control.
Chain of Serine/threonine-protein kinase PAK 6 (Homo sapiens) (Q9NQU5 whole entry, looked up): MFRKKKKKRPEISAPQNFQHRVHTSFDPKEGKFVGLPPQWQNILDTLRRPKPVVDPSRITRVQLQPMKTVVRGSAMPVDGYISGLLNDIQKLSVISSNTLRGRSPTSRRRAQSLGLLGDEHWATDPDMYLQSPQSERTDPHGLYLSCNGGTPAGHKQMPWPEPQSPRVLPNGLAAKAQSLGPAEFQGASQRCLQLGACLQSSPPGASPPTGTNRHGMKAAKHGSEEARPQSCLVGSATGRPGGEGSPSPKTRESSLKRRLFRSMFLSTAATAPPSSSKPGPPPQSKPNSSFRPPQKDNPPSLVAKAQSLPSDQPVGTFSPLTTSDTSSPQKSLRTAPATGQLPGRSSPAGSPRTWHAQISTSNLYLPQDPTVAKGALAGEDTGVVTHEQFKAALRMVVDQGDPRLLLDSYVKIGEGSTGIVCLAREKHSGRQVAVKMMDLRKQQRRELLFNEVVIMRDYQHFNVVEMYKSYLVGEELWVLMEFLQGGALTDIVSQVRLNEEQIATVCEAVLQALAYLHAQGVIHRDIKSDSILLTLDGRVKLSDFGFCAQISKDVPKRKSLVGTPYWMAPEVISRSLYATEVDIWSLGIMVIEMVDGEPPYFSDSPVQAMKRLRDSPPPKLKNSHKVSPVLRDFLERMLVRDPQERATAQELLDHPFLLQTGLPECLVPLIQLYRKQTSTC
The target of experiment [4] is Tyrosine-protein kinase CSK (Homo sapiens) (UniProt P41240). Nature of the experiment: Inhibition of CSK (unknown origin) at 1 uM incubated for 30 mins in presence of [gamma-33P]ATP by multidrop micro reagent based assay relative to control.
For experiment [5], the target named is Ribosomal protein S6 kinase alpha-5 (Homo sapiens) (UniProt O75582). In words: Inhibition of MSK1 (unknown origin) at 1 uM incubated for 30 mins in presence of [gamma-33P]ATP by multidrop micro reagent based assay relative to control; values are per cent of control.
In experiment [6] the target is T1, Interleukin-1 receptor-associated kinase 4 (Homo sapiens) (UniProt Q9NWZ3).
T1 sequence (whole entry): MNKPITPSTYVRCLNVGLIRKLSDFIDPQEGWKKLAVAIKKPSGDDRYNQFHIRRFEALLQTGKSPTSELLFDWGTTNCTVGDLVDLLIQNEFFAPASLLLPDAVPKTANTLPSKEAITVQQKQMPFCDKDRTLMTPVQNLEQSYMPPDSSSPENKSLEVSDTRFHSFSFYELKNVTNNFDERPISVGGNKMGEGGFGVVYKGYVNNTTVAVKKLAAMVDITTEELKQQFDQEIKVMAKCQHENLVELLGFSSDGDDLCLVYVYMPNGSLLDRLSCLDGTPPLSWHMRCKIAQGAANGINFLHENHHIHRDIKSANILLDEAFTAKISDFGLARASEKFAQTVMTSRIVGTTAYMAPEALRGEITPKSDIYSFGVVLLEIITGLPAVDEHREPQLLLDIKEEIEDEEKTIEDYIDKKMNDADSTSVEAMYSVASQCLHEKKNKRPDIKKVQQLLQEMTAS
Nature of the experiment: Activity of IRAK4 (unknown origin) at 1 uM incubated for 30 mins in presence of [gamma-33P]ATP by multidrop micro reagent based assay relative to control.

Experiment [7] addresses Mitogen-activated protein kinase 14 (Homo sapiens) (UniProt Q16539). In words: Inhibition of p38alpha MAPK (unknown origin) at 1 uM incubated for 30 mins in presence of [gamma-33P]ATP by multidrop micro reagent based assay relative to control; values are per cent of control.
Experiment [8] concerns the target MAP/microtubule affinity-regulating kinase 3 (Homo sapiens) (UniProt P27448). Nature of the experiment: Inhibition of MARK3 (unknown origin) at 1 uM incubated for 30 mins in presence of [gamma-33P]ATP by multidrop micro reagent based assay relative to control; values are per cent of control.
Experiment [9] has as its system Leucine-rich repeat serine/threonine-protein kinase 2 (Homo sapiens), Q5S007 [G2019S]. Nature of the experiment: Inhibition of LRRK2 G2019S mutant (unknown origin) at 1 uM incubated for 30 mins in presence of [gamma-33P]ATP by multidrop micro reagent based assay relative to control; values are per cent of control.
In experiment [10] the target is Mitogen-activated protein kinase 3 (Homo sapiens) (UniProt P27361). Nature of the experiment: Inhibition of ERK1 (unknown origin) at 1 uM incubated for 30 mins in presence of [gamma-33P]ATP by multidrop micro reagent based assay relative to control; values are per cent of control.
Chain of Mitogen-activated protein kinase 3 (Homo sapiens) (P27361 whole entry): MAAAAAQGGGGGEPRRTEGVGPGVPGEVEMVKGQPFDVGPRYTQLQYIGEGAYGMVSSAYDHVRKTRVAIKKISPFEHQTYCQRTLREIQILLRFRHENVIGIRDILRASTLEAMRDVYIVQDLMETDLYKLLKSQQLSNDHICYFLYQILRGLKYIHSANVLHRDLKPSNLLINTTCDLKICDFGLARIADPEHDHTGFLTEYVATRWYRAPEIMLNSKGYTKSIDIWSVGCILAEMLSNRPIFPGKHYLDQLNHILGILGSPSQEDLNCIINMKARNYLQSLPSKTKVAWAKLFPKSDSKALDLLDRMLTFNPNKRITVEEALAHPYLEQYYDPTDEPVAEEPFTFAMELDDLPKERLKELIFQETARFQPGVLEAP
In experiment [11] the target is Misshapen-like kinase 1 (Homo sapiens) (UniProt Q8N4C8). Nature of the experiment: Inhibition of MINK1 (unknown origin) at 1 uM incubated for 30 mins in presence of [gamma-33P]ATP by multidrop micro reagent based assay relative to control.
Chain of Misshapen-like kinase 1 (Homo sapiens) (Q8N4C8 whole entry, looked up): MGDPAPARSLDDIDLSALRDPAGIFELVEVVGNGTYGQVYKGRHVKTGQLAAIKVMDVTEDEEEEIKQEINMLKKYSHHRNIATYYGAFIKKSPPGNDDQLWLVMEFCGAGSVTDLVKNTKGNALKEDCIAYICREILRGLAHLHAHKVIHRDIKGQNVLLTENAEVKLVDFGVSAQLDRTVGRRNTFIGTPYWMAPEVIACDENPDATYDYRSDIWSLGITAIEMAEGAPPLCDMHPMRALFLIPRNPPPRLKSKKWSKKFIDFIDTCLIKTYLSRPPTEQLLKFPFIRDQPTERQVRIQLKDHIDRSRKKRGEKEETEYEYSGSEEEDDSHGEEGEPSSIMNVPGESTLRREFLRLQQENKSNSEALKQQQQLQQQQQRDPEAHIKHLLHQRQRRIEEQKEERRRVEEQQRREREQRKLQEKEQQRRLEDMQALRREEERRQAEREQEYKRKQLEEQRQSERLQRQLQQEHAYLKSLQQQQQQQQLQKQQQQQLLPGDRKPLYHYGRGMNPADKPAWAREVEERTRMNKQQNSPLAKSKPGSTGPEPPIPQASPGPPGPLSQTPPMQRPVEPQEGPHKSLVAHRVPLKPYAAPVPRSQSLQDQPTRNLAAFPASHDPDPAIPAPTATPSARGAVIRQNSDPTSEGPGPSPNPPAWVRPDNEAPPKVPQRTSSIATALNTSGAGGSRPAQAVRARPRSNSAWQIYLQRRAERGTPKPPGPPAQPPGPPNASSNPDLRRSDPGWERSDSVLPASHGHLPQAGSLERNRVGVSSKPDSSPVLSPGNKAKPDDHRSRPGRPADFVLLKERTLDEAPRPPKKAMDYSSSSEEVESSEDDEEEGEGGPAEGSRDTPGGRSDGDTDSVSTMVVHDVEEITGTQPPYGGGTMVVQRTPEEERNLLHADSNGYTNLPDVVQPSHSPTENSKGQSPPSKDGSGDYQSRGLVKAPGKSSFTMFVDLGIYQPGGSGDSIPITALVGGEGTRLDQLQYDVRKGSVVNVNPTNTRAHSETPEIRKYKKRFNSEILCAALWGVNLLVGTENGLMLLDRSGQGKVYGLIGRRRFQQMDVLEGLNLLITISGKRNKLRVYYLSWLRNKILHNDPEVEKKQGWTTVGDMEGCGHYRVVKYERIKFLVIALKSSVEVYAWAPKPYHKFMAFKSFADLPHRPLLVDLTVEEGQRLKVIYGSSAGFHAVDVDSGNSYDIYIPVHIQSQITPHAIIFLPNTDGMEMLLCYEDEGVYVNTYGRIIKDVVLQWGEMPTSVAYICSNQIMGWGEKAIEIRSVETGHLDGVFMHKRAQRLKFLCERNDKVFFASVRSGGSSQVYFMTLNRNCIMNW
Experiment [12] concerns the target Dual specificity mitogen-activated protein kinase kinase 1 (Homo sapiens) (UniProt Q02750). Nature of the experiment: Inhibition of MKK1 (unknown origin) at 1 uM incubated for 30 mins in presence of [gamma-33P]ATP by multidrop micro reagent based assay relative to control; values are per cent of control.
In experiment [13] the target is T2, Inhibitor of nuclear factor kappa-B kinase subunit epsilon (Homo sapiens) (UniProt Q14164).
T2 sequence (whole entry): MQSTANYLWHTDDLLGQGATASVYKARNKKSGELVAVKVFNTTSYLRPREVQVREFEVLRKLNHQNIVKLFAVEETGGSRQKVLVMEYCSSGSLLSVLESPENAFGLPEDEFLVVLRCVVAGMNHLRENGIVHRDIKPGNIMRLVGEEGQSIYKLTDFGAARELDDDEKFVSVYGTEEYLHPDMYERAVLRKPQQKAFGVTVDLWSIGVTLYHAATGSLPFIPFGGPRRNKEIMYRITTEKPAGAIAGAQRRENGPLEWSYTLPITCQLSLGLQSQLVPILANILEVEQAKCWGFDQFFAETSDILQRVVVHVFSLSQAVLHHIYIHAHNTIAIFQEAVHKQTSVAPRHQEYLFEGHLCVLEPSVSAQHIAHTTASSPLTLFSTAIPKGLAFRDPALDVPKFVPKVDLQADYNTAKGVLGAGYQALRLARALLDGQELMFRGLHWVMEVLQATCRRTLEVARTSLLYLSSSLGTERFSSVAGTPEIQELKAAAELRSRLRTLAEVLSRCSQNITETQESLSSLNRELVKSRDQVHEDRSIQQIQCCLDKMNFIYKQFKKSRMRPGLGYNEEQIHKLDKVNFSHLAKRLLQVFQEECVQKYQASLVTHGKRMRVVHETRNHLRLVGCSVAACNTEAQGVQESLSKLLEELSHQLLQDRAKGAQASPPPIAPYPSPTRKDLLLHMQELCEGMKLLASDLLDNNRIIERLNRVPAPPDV
Nature of the experiment: Inhibition of IKKepsilon (unknown origin) at 1 uM incubated for 30 mins in presence of [gamma-33P]ATP by multidrop micro reagent based assay relative to control.

Usually inhibition stands for the drop in the measured response relative to a control, in per cent.

Chain of Leucine-rich repeat serine/threonine-protein kinase 2 (Homo sapiens), Q5S007 [G2019S] (Q5S007 whole entry G2019S): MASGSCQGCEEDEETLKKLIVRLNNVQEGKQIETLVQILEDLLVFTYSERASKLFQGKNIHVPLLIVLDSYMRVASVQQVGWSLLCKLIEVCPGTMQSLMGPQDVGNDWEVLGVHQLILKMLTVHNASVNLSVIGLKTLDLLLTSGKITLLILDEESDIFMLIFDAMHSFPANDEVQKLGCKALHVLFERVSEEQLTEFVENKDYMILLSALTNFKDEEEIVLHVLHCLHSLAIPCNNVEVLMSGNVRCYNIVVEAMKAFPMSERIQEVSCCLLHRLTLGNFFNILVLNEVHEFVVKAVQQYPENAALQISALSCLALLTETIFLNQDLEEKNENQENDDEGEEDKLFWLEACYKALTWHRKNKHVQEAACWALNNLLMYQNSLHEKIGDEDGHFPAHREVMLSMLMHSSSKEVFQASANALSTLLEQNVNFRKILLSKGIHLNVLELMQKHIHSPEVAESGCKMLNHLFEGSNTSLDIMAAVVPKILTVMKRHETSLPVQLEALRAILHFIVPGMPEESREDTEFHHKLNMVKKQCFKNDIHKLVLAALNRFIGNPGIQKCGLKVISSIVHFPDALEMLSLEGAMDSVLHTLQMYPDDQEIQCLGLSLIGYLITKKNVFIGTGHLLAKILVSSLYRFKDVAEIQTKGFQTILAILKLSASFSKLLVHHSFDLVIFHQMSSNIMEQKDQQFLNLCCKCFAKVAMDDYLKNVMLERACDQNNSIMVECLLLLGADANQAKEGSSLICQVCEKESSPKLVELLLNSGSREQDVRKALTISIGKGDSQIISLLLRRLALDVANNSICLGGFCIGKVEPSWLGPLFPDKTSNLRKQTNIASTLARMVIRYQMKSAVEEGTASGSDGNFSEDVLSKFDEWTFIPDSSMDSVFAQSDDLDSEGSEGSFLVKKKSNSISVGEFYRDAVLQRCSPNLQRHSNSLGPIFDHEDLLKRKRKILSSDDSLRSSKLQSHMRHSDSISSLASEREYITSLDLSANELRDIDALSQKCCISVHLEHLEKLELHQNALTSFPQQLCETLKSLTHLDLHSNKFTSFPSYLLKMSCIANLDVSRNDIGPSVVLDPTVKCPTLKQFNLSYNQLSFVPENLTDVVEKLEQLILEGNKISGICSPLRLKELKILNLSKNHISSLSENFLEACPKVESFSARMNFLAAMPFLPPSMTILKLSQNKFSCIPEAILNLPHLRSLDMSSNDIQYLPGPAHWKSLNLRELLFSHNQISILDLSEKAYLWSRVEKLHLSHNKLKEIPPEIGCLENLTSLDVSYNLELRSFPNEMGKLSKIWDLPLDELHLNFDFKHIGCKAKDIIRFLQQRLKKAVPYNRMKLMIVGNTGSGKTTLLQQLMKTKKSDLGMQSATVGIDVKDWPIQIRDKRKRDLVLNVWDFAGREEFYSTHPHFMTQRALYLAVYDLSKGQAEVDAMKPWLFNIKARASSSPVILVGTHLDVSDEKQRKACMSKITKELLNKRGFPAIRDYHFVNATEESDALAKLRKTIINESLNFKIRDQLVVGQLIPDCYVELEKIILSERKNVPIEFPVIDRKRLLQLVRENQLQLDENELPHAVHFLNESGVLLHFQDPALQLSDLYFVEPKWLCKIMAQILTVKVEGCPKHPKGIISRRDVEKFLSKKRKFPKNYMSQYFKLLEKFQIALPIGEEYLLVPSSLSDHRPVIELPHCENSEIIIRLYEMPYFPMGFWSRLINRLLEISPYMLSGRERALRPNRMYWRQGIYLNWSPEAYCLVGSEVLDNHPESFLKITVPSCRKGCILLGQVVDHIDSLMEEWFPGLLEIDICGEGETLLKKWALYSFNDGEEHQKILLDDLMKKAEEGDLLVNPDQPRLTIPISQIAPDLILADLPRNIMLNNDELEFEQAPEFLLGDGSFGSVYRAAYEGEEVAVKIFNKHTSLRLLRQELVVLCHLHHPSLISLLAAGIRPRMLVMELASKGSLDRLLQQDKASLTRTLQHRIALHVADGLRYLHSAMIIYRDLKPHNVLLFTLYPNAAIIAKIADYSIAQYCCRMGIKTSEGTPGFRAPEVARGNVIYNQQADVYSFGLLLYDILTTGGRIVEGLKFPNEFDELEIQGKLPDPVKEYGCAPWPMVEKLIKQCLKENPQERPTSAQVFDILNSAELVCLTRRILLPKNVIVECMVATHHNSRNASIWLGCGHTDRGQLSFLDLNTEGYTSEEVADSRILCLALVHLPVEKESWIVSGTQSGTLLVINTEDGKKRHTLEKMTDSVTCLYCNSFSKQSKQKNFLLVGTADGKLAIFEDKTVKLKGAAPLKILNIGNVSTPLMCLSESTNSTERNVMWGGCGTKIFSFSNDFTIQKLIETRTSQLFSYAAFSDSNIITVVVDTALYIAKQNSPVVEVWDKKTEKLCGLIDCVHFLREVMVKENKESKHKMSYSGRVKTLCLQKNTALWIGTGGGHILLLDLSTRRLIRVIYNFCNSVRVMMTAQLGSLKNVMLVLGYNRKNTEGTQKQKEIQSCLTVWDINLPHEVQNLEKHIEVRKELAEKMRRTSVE

On to `Cc1cncc2cccc(S(=O)(=O)N3CCCNC[C@@H]3C)c12`, for which the residual activity in [1] came to 85%; in experiment [2], 57%; in experiment [3], 103%; in experiment [5], 39%; in experiment [6] it was 102%; in experiment [7], 109%. In addition, the residual activity in experiment [8] stood at 56%; in experiment [9], 13%; in [10], 105%; in experiment [11], 104%; in experiment [12] it was 69%; in experiment [13], 80%. Besides, the inhibition in experiment [4] stood at 101%.

For `CCn1c(-c2nonc2N)nc2cnc(Oc3cccc(NC(=O)c4ccc(OCCN5CCOCC5)cc4)c3)cc21` [GSK-269962A], the residual activity in experiment [1] was 97%; in experiment [2], 12%; in [3] it was 106%; in experiment [5], 1%; in [6] it was 78%; in [7], 108%. In addition, the residual activity in experiment [8] was found to be 67%; in [9] it was 66%; in experiment [10] it was 106%; in [11], 70%; in experiment [12] it was 54%; in [13], 66%. Besides, the inhibition in experiment [4] was 98%.

Regarding `CCN(CC)CCNC(=O)c1c(C)[nH]c(/C=C2\C(=O)Nc3ccc(F)cc32)c1C`, the residual activity in [2] turned out to be 78%; in [5], 60%; in experiment [11] it was 8%; in experiment [13], 63%.

Take `CC1=C(C(=O)Nc2cc3cn[nH]c3cc2F)C(c2ccc(C(F)(F)F)cc2)CC(=O)N1` (stereo not drawn): the residual activity in experiment [1] turned out to be 116%; in [2], 20%; in [3], 109%; in experiment [5], 20%; in experiment [6], 94%; in experiment [7] it was 103%. The residual activity in [8] is 98%; in [9], 97%; in experiment [10], 90%; in [11], 75%; in experiment [12] it was 61%; in experiment [13], 109%. The inhibition in [4] came to 106%.
